Columns and labels:
Assay in all cases: relative viability (nuclei count vs DMSO), 5 days (fraction); higher = more cells survive
RAF265 + Crizotinib = compound: Cn1c(Nc2ccc(C(F)(F)F)cc2)nc2cc(Oc3ccnc(-c4ncc(C(F)(F)F)[nH]4)c3)ccc21 [RAF265] + C[C@@H](Oc1cc(-c2cnn(C3CCNCC3)c2)cnc1N)c1c(Cl)ccc(F)c1Cl [Crizotinib] (partner 1 µM)
Method in brief: (§1)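 For relative viability, nuclei counts in treated wells were divided by those in vehicle wells. Lung cancer cell lines had been pin-tool dosed in 1536-well plates the day after seeding and cultured for 5 days, then fixed and stained in one step (final 0.05% Triton X-100, 1% formaldehyde, 1 ug/ml Hoechst) and imaged at 4×. Doses were one drug alone or a fixed anchor-drug dose plus five library-drug doses (not always all listed) in √10 steps, and values are duplicate-plate medians.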

RAF265 + OSI-027 = compound: Cn1c(Nc2ccc(C(F)(F)F)cc2)nc2cc(Oc3ccnc(-c4ncc(C(F)(F)F)[nH]4)c3)ccc21 [RAF265] + COc1cccc2cc(-c3nc([C@H]4CC[C@H](C(=O)O)CC4)n4ncnc(N)c34)[nH]c12 [OSI-027] (partner 0.5 µM)
Method in brief: as §1

IPA-3 + Vorinostat = compound: C1=CC=C2C(=C1)C=CC(=C2SSC3=C(C=CC4=CC=CC=C43)O)O [IPA-3] + O=C(CCCCCCC(=O)Nc1ccccc1)NO [Vorinostat] (partner 1 µM)
Method in brief: as §1

Cell Line	relative viability (RAF265 + Crizotinib; first compound 0.01 µM)	relative viability (RAF265 + Crizotinib; first compound 0.03162 µM)	relative viability (RAF265 + Crizotinib; first compound 0.1 µM)	relative viability (RAF265 + Crizotinib; first compound 0.3162 µM)	relative viability (RAF265 + Crizotinib; first compound 1 µM)	relative viability (RAF265 + OSI-027; first compound 0.01 µM)	relative viability (RAF265 + OSI-027; first compound 0.03162 µM)	relative viability (RAF265 + OSI-027; first compound 0.1 µM)	relative viability (RAF265 + OSI-027; first compound 0.3162 µM)	relative viability (RAF265 + OSI-027; first compound 1 µM)	relative viability (IPA-3 + Vorinostat; first compound 0.2 µM)	relative viability (IPA-3 + Vorinostat; first compound 0.6325 µM)	relative viability (IPA-3 + Vorinostat; first compound 2 µM)	relative viability (IPA-3 + Vorinostat; first compound 6.325 µM)	relative viability (IPA-3 + Vorinostat; first compound 20 µM)
HCC-366	0.487	0.473	0.739	0.626	0.404	1.04	0.939	0.834	0.165	0.107	0.518	0.287	0.339	0.341	0.318
SK-LU-1	0.45	0.753	0.73	0.477	0.397	0.349	0.254	0.224	0.232	0.193	0.902	0.779	0.643	0.75	0.852
HCC-44	0.791	0.679	0.854	0.83	0.772	0.735	0.479	0.636	0.449	0.477	1.03	1.03	1.04	1.07	0.986
A-427	0.882	0.639	0.927	0.644	0.159	0.4	0.334	0.312	0.18	0.129	0.858	0.88	0.9	0.918	0.853
SW 1573	0.869	0.632	0.842	0.663	0.406	0.697	0.521	0.418	0.347	0.249	1.05	0.655	0.865	0.958	0.536
NCI-H322M	0.897	0.839	0.866	0.281	0.282	0.589	0.519	0.41	0.358	0.186	0.92	0.948	1.02	1.07	1.11
ABC-1	1.17	0.864	1.37	0.851	0.464	0.39	0.48	0.365	0.408	0.31	1.2	1.31	1.11	1.12	1.13
LK-2	0.203	0.222	0.239	0.237	0.223	0.212	0.202	0.176	0.177	0.203	0.321	0.321	0.429	0.553	0.506
NCI-H2023	0.624	0.58	0.88	0.668	0.478	0.387	0.358	0.33	0.252	0.318	0.866	0.681	0.789	0.699	0.839
NCI-H596	0.933	0.938	0.962	0.924	0.711	0.982	0.751	0.784	0.563	0.554	0.722	0.772	0.578	0.694	0.656
SK-MES-1	1	0.88	0.919	0.334	0.242	0.544	0.355	0.186	0.223	0.187	1.27	1.03	1.09	0.925	1.04
NCI-H2405	0.846	0.803	0.872	0.756	0.566	0.601	0.626	0.621	0.611	0.366	1.17	1.11	1.11	0.922	1.04
LCLC-103H	1.06	1.05	1.07	1	0.713	0.466	0.439	0.464	0.443	0.308	0.849	0.807	0.805	0.865	0.867
NCI-H460	0.972	0.904	0.743		0.881	0.696	0.627	0.416	0.222	0.0945	0.94	0.665	0.729	0.626	0.504
NCI-H1755	0.837	0.757	0.813	0.685	0.476	0.689	0.636	0.597	0.455	0.303	0.863	0.61	0.694	0.63	0.704
NCI-H358	0.618	0.597	0.5	0.395	0.23	0.864	0.617	0.305	0.194	0.18	0.785	0.618	0.783	0.619	0.803
NCI-H1734	0.662	0.47	0.751	0.492	0.319	0.604	0.54	0.38	0.381	0.247	0.922	0.761	0.799	0.726	0.638
EPLC-272H	0.765	0.868	1.32	0.472	0.434	0.251	0.288	0.237	0.218	0.184	0.397	0.468	0.366	0.482	0.546
NCI-H2126	1.02	1.04	1.03	0.96	0.754	0.77	0.724	0.718	0.582	0.437	0.822	0.784	0.746	0.753	0.892

From the supplement of paper PMC10307832
